The record followed here is patent US20040210958A1, “A Novel Culture Method for Corn Transformation” (MONSANTO TECHNOLOGY LLC, priority 2003, published 2004).

This assay has as its system nodal section explants from 7-day-old seedlings of corn line 106. In words: Effect of seed germination medium on callus induction from nodal section explants (36-media screen). Type of assay: cell-based. The method, then:
This example described experiments to determine the best combination of auxins and cytokinins in the germination tissue culture media. To improve the efficiency of callus induction from 106 seedlings, 36 different germination media were evaluated. Those media were MS-based with different combinations of picloram (0, 0.1, 1, 2.2, 5 or 10 mg/L) and BAP (0, 0.1, 1, 3, 5 or 10 mg/L) concentrations.

Turning to `c1ccc(CNc2ncnc3nc[nH]c23)cc1` [BAP, 6-benzylaminopurine], the “callus induction (% embryogenic calli per node)” value by setting is: (germination medium picloram 0.00 mg/L, BAP 0.10 mg/L) 4.76%; (germination medium picloram 0.00 mg/L, BAP 1.00 mg/L) 0.00%; (germination medium picloram 0.00 mg/L, BAP 3.00 mg/L) 14.29%; (germination medium picloram 0.00 mg/L, BAP 5.00 mg/L) 0.00%; (germination medium picloram 0.00 mg/L, BAP 10.00 mg/L) 0.00%.
In the case of `Nc1c(Cl)c(Cl)nc(C(=O)O)c1Cl` [Picloram, 4-amino-3,5,6-trichloropicolinic acid], the “callus induction (% embryogenic calli per node)” value (germination medium picloram 0.10 mg/L, BAP 0.00 mg/L) turned out to be 0.00%; the “callus induction (% embryogenic calli per node)” value (germination medium picloram 1.00 mg/L, BAP 0.00 mg/L) is 9.52%; the “callus induction (% embryogenic calli per node)” value (germination medium picloram 2.20 mg/L, BAP 0.00 mg/L) came out at 9.52%; the “callus induction (% embryogenic calli per node)” value (germination medium picloram 5.00 mg/L, BAP 0.00 mg/L) is on record as 19.05%; the “callus induction (% embryogenic calli per node)” value (germination medium picloram 10.00 mg/L, BAP 0.00 mg/L) was determined as 4.76%.
